Drawing on patent US20260184663A1, “INDENE COMPOUNDS, PHARMACEUTICAL COMPOSITIONS THEREOF, AND THEIR THERAPEUTIC APPLICATIONS” (NucMito Pharmaceuticals co. Ltd., priority 2022, published 2026), this text covers inhibition for seven compounds.

Bounds are passed on as bounds.

What all share (assay type): cell-based
One assay relates to SW480 (colon cancer). Description: Antiproliferative activity (CCK-8 cell viability), SW480. To be noted: Homo sapiens, 72 h, read-out: Antiproliferative activity in cancerous cells, SW480 (inhibition of cell growth); for inhibition at 3.3 µM: Compound concentration: 3.3 μM; for inhibition at 10 µM: Compound concentration: 10 μM. The gist of the method: (§1)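 Cells were seeded at 2,000-5,000/well (HeLa in MEM, HepG2 and SW480 in DMEM, A549 in F-12K, all with 10% FBS) and treated with compound at 3.3, 10 or 30 μM for 72 h at 37° C. CCK-8 was added for 4 h, absorbance was read at 450 nm, and viability was expressed relative to DMSO-treated wells.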

For a further assay, the system named is HeLa (cervical cancer). The experiment in a line: Antiproliferative activity (CCK-8 cell viability), HeLa. Particulars: Homo sapiens, 72 h, read-out: Antiproliferative activity in cancerous cells, HELA (inhibition of cell growth); for inhibition at 3.3 µM: Compound concentration: 3.3 μM; for inhibition at 10 µM: Compound concentration: 10 μM. The procedure, abridged:
as §1

The test system of assay [1] is A549 (lung adenocarcinoma). Description: Antiproliferative activity (CCK-8 cell viability), A549. To be noted: Homo sapiens, 72 h, read-out: Antiproliferative activity in cancerous cells, A549 (inhibition of cell growth); for inhibition at 3.3 µM: Compound concentration: 3.3 μM; for inhibition at 10 µM: Compound concentration: 10 μM. The procedure, abridged: as §1
The subject of assay [2] is MDA-MB-231 (breast cancer). The experiment in a line: Antiproliferative activity (CCK-8 cell viability), MDA-MB-231. To be noted: Homo sapiens, 72 h, read-out: Antiproliferative activity in cancerous cells, MDA-MB-231 (inhibition of cell growth); for inhibition at 3.3 µM: Compound concentration: 3.3 μM; for inhibition at 10 µM: Compound concentration: 10 μM. The procedure, abridged:
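In this CCK-8 viability assay, MDA-MB-231 cells maintained in Dulbecco's modified Eagle's medium containing 10% fetal bovine serum were placed in 96-well plates (2,000-5,000 cells/well) and treated with compound for 72 h at 37° C. A 4 h incubation with 10 μL CCK-8 followed, plates were read at 450 nm, and viability was expressed against DMSO vehicle wells across replicates.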

The subject of assay [3] is B16F10 (malignant melanoma). Description: Antiproliferative activity (CCK-8 cell viability), B16F10. To be noted: Mus musculus, 72 h, read-out: Antiproliferative activity in cancerous cells, B16F10 (inhibition of cell growth); for inhibition at 3.3 µM: B16-F10, Compound concentration: 3.3 μM; for inhibition at 10 µM: B16-F10, Compound concentration: 10 μM. The gist of the method:
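Attached B16F10 cells in 96-well plates were incubated with compound at 37° C for 72 h, followed by 10 μL CCK-8 reagent per well and a further 4 h incubation. A multi-well plate reader measured absorbance at 450 nm. Percent viability across replicates was calculated against DMSO vehicle-treated cells.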

Assay [4] concerns A431 (epidermoid carcinoma). Description: Antiproliferative activity (CCK-8 cell viability), A431. To be noted: Homo sapiens, 72 h, read-out: Antiproliferative activity in cancerous cells, A431 (inhibition of cell growth); for inhibition at 3.3 µM: A-431, Compound concentration: 3.3 μM; for inhibition at 10 µM: A-431, Compound concentration: 10 μM. The gist of the method:
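Cell viability of compound-treated A431 cells was measured with a Cell Counting Kit-8. Each well received 10 μL of CCK-8 after 72 h of compound exposure, followed by 4 h incubation at 37° C. and a 450 nm plate-reader measurement. Percent viability was calculated relative to DMSO controls across replicates.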

In another assay the test system is HepG2 (liver cancer). The experiment in a line: Antiproliferative activity (CCK-8 cell viability), HepG2. To be noted: Homo sapiens, 72 h, read-out: Antiproliferative activity in cancerous cells, HepG2 (inhibition of cell growth); for inhibition at 3.3 µM: Compound concentration: 3.3 μM; for inhibition at 10 µM: Compound concentration: 10 μM. The gist of the method:
as §1

For the compound `CC1=C(CC(=O)O)c2cc(C)ccc2/C1=C\c1ccc(CCCc2ccc(Cl)cc2)cc1` [B123, (Z)-2-(1-(4-(3-(4-Chlorophenyl)propyl)benzylidene)-2,5-dimethyl-1H-inden-3-yl)acetic acid], the inhibition (as a rule, the share of the control response that was lost under treatment) at 3.3 µM in the assay with SW480 (colon cancer) was 30 to 50%; in the assay on HeLa (cervical cancer), < 30%; in assay [1], ≥ 50%; in assay [2], < 30%; in assay [3] it was ≥ 50%; in assay [4], ≥ 50%. In addition, the inhibition at 3.3 µM in the assay on HepG2 (liver cancer) is 30 to 50%. Also, the inhibition at 10 µM (in the assay with SW480 (colon cancer); in the assay on HeLa (cervical cancer); in assay [1]; in assay [2]; in assay [3]; in assay [4]) was ≥ 50% in each case. For the same compound, the inhibition at 10 µM in the assay on HepG2 (liver cancer) is ≥ 50%.

Take `CC1=C(CC(=O)O)c2cc(F)ccc2/C1=C\c1ccc(COCc2ccc(F)c(Cl)c2)cc1` [B106, (Z)-2-(1-(4-(((3-Chloro-4-fluorobenzyl)oxy)methyl)benzylidene)-5-fluoro-2-methyl-1H-inden-3-yl)acetic acid]: the inhibition at 3.3 µM in the assay on SW480 (colon cancer) was ≥ 50%; in the assay on HeLa (cervical cancer), ≥ 50%; in assay [1], 30 to 50%; in assay [2] it was ≥ 50%; in assay [3], < 30%; in assay [4], 30 to 50%. Moreover, the inhibition at 3.3 µM with HepG2 (liver cancer) was < 30%. The inhibition at 10 µM (in the assay with SW480 (colon cancer); in the assay on HeLa (cervical cancer); in assay [1]; in assay [2]; in assay [3]; in assay [4]) was ≥ 50% throughout. The inhibition at 10 µM with HepG2 (liver cancer) is ≥ 50%.

Regarding `COc1cc(COCc2ccc(/C=C3/C(C)=C(CC(=O)O)c4cc(F)ccc43)cc2)ccc1F` [B113, (Z)-2-(5-Fluoro-1-(4-(((4-fluoro-3-methoxybenzyl)oxy)methyl)benzylidene)-2-methyl-1H-inden-3-yl)acetic acid], the inhibition at 3.3 µM in the assay on SW480 (colon cancer) is < 30%; in the assay with HeLa (cervical cancer), < 30%; in assay [1], 30 to 50%; in assay [2], 30 to 50%; in assay [3], < 30%; in assay [4] it was ≥ 50%. Besides, in the assay with HepG2 (liver cancer), the inhibition at 3.3 µM was < 30%. The inhibition at 10 µM in the assay on SW480 (colon cancer) was ≥ 50%; in the assay on HeLa (cervical cancer), ≥ 50%; in assay [1], ≥ 50%; in assay [2], ≥ 50%; in assay [3] it was < 30%; in assay [4], ≥ 50%. In the assay with HepG2 (liver cancer), the inhibition at 10 µM is < 30%.

Turning to `CC1=C(CC(=O)O)c2cc(F)ccc2/C1=C\c1ccc(COc2ccc(Cl)cc2)cc1C` [B73, (Z)-2-(1-(4-((4-Chlorophenoxy)methyl)-2-methylbenzylidene)-5-fluoro-2-methyl-1H-inden-3-yl)acetic acid], the inhibition at 3.3 µM in the assay with SW480 (colon cancer) is 30 to 50%; with HeLa (cervical cancer) it was 30 to 50%; in assay [1], < 30%; in assay [2] it was < 30%; in assay [3], 30 to 50%; in assay [4], ≥ 50%. The inhibition at 3.3 µM with HepG2 (liver cancer) is < 30%. For the same compound, the inhibition at 10 µM with SW480 (colon cancer) is ≥ 50%; in the assay with HeLa (cervical cancer), ≥ 50%; in assay [1] it was ≥ 50%; in assay [2], < 30%; in assay [3], 30 to 50%; in assay [4], ≥ 50%. Also, the inhibition at 10 µM in the assay on HepG2 (liver cancer) is ≥ 50%.

As for `CC1=C(CC(=O)O)c2cc(Cl)c(Cl)cc2/C1=C/c1ccc(Oc2ccc(F)cc2)cc1` [E28, (E)-2-(5,6-Dichloro-1-(4-(4-fluorophenoxy)benzylidene)-2-methyl-1H-inden-3-yl)acetic acid], the inhibition at 3.3 µM was < 30% with SW480 (colon cancer); ≥ 50% in the assay on HeLa (cervical cancer); ≥ 50% in assay [1]; ≥ 50% in assay [2]; ≥ 50% in assay [3]; 30 to 50% in assay [4]. Moreover, the inhibition at 3.3 µM in the assay with HepG2 (liver cancer) was ≥ 50%. The inhibition at 10 µM (in the assay with SW480 (colon cancer); in the assay on HeLa (cervical cancer); in assay [1]; in assay [2]; in assay [3]; in assay [4]) was ≥ 50% in each case. Further, in the assay on HepG2 (liver cancer), the inhibition at 10 µM is ≥ 50%. Besides, the inhibition at 30 µM in the assay with SW480 (colon cancer) (Compound concentration: 30 μM) is ≥ 50%; in the assay with HeLa (cervical cancer) (Compound concentration: 30 μM), ≥ 50%; in assay [1] (Compound concentration: 30 μM), ≥ 50%; in assay [2] (Compound concentration: 30 μM) it was ≥ 50%; in assay [3] (B16-F10, Compound concentration: 30 μM), ≥ 50%; in assay [4] (A-431, Compound concentration: 30 μM), ≥ 50%. Further, the inhibition at 30 µM in the assay on HepG2 (liver cancer) (Compound concentration: 30 μM) is ≥ 50%.

On to `CC1=C(CC(=O)O)c2cc(F)ccc2/C1=C\c1ccc(CCOc2ccccc2)cc1` [B32, (Z)-2-(5-Fluoro-2-methyl-1-(4-(2-phenoxyethyl)benzylidene)-1H-inden-3-yl)acetic acid], for which the inhibition at 3.3 µM in the assay on SW480 (colon cancer) is 30 to 50%; in the assay with HeLa (cervical cancer), < 30%; in assay [1], 30 to 50%; in assay [2], < 30%; in assay [3], 30 to 50%; in assay [4] it was 30 to 50%. In addition, the inhibition at 3.3 µM in the assay with HepG2 (liver cancer) is < 30%. Further, the inhibition at 10 µM with SW480 (colon cancer) is 30 to 50%; in the assay on HeLa (cervical cancer), ≥ 50%; in assay [1] it was ≥ 50%; in assay [2], < 30%; in assay [3] it was ≥ 50%; in assay [4] it was ≥ 50%. In addition, in the assay with HepG2 (liver cancer), the inhibition at 10 µM is ≥ 50%.

For `COc1cc(Oc2ccc(F)cc2)ccc1/C=C1/C(C)=C(CC(=O)O)c2cc(F)ccc21` [C51, (Z)-2-(5-Fluoro-1-(4-(4-fluorophenoxy)-2-methoxybenzylidene)-2-methyl-1H-inden-3-yl)acetic acid], the inhibition at 3.3 µM in the assay on SW480 (colon cancer) was 30 to 50%; with HeLa (cervical cancer) it was 30 to 50%; in assay [1], 30 to 50%; in assay [2], 30 to 50%; in assay [3], ≥ 50%; in assay [4], ≥ 50%. In the assay on HepG2 (liver cancer), the inhibition at 3.3 µM was < 30%. In addition, the inhibition at 10 µM with SW480 (colon cancer) is ≥ 50%; in the assay with HeLa (cervical cancer), ≥ 50%; in assay [1] it was 30 to 50%; in assay [2], ≥ 50%; in assay [3] it was ≥ 50%; in assay [4] it was ≥ 50%. Further, the inhibition at 10 µM with HepG2 (liver cancer) is ≥ 50%.
